Columns and labels:
[1] = test system: NF-κB Luciferase Reporter Hela cells; assay: TNF-α inducing NF-κB reporter; assay type: cell-based; details: Homo sapiens, 6 h, Bright-Glo luciferase
Protocol: Biological Assay 2: TNF-α inducing NF-κB reporter
• 1) tested compounds were added into DMSO to give parent liquor (10 mM); • 2) reference compound Birinapant (32 μL, 10 mM) was added into DMSO (128 μL) to give a solution (2 mM); • 3) 0.5 μL reference compound Birinapant (2 mM) and tested compounds (10 mM) were taken by Echo and added into Greiner 96 well black cell culture plate respectively. The initial concentration of the reference compound and tested compound was 10 μM and 50 μM, respectively. Then, the reference compound and tested compounds were diluted at 9 points in series by 5-fold; and every plate was repeated for 3 times. • 4) the reference compound WXFL2012A001 (Birinapant) (final concentration: 10 μM) as HPE and DMSO (final concentration: 0.5%) as ZPE.
• 5) purpose of the three repeated plates: the first plate was used for testing compounds' activity;
the second plate was used for testing cytotoxicity of the compounds; the third plate was used for solution replacement of the first and second plates: mixing inducer TNF-α and medium containing 0.1% FBS, and then being added to the third plate and the resultant mixture was transferred to the first plate where supernatants had been removed.
• 1) removing medium in NF-iBLuciferase Reporter Hela cell culture flask and washing cell once with PBS (10 mL) • 2) adding 0.25% pancreatin (3 mL) to T150 cell culture flask, and placinginto cell incubator (37° C., 5%CO2) and dissociating cell for 3 min, and then medium (10 mL) was added to end dissociation and blowing cells with electric pipette until cells were dispersed into single cell. • 3) Calculating cell density with cell counter Countstar • 4) Adjusting NF-κB Luciferase Reporter Hela density with medium to 2.0×10^5 cells/mL • 5) Adding cells to two Greiner 96 well black cell culture plates containing compounds, (100 μL per well (2.0×10^4 cells/well)), one plate was used for testing compounds' activity, another was used for testing cytotoxicity of the compounds. • 6) Placing cell culture plates into cell incubator (37° C., 5%CO2) and incubatingfor 24 h Second Day TNF-α Inducing • 1) TNF-α (100 μg/mL) was diluted into 20 ng/mL with 0.1% FBS medium and transferredto the third plate with 100 μL per well • 2) Removing medium of the first 96 well black cell culture plate (compound activity testing plate) after 24 h, replacing with fresh medium containing the compound and 20 ng/mL TNF-α in the third plate • 3) Placing cell culture plate into cell incubator (37° C., 5% CO2) and incubatingfor 6 h • 4) after 6 h, compound's activity in the first plate was tested according to Bright-Glo (Promega) manual method, luciferase signal in each well was tested by Envision plate reader • 5) compound's cytotoxicity in the second plate was tested according to ATPlite 1Step (Perkin Elmer) manual method, luciferase signal in each well was tested by Envision plate reader • 6) analyzing with software to obtain EC50 of compound.

cIAP1-BIR3 Protein = cIAP1-BIR3 Protein (Homo sapiens (Human), UniProt Q13490); assay: Fluorescence polarization affinity of compounds to cIAP1-BIR3; assay type: binding; details: cIAP1-BIR3 20 nM; 5 nM ARPFAQ-K(5-FAM)-NH2 probe; FP; pH 7.5; read-out: affinity to target protein in vitro, cIAP1-BIR3 Protein (IC50)
Sequence of cIAP1-BIR3 Protein (Q13490 253-363): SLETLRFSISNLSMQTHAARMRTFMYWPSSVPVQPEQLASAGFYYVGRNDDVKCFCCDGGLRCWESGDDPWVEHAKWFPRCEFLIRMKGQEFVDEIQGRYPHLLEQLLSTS
Protocol: (§1) Biological Assay 1: affinity of compounds to cIAP1-BIR3, cIAP2-BIR3, XIAP-BIR3 • 1) Affinity of compounds listed in table to cIAP1-BIR3, Ciap2-BIR3, XIAP-BIR3 was tested referring to Nikolovska-Colesks, Z. et.Al. (Analytical Biochemistry,2004,232:261-273) to obtain IC50 value. Generally speaking, in 10-dose IC50 mode, IAP antagonists with different concentrations were diluted in series by 3-fold and fluorescence labelled ARPFAQ-K (5-FAM)-NH2 peptide was used as probe to test compounds binding to protein BIR3 domain. • 2) Test condition: cIAP1-BIR3: 20 nM; cIAP2-BIR3: 60 nM; XIAP-BIR3: 30 nM; 5 nM probe in 100 mM tripotassium phosphate, pH 7.5, 0.1 mg/mL BSA, 0.005% Triton X100 and 0.5% DMSO. • 3) Test procedure: compounds were added into protein with different concentrations by using ECHO (LabCyte), and then the mixture was preincubated for 15 min. The probe was added and the final concentration was 5 nM. After incubating for 60 min, FP was tested and mP was calculated. Experiment results were list in table 1.

cIAP2-BIR3 Protein = cIAP2-BIR3 Protein (Homo sapiens (Human), UniProt Q13489); assay: Fluorescence polarization affinity of compounds to cIAP2-BIR3; assay type: binding; details: cIAP2-BIR3 60 nM; 5 nM ARPFAQ-K(5-FAM)-NH2 probe; FP; pH 7.5; read-out: affinity to target protein in vitro, cIAP2-BIR3 Protein (IC50)
Sequence of cIAP2-BIR3 Protein (Q13489 238-349): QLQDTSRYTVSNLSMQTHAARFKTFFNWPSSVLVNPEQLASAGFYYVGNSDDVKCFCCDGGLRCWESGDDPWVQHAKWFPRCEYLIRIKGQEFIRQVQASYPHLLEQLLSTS
Protocol: as §1

XIAP-BIR3 Protein = XIAP-BIR3 Protein (Homo sapiens (Human), UniProt P98170); assay: Fluorescence polarization affinity of compounds to XIAP-BIR3; assay type: binding; details: XIAP-BIR3 30 nM; 5 nM ARPFAQ-K(5-FAM)-NH2 probe; FP; pH 7.5; read-out: affinity to target protein in vitro, XIAP-BIR3 Protein (IC50)
Sequence of XIAP-BIR3 Protein (P98170 241-356): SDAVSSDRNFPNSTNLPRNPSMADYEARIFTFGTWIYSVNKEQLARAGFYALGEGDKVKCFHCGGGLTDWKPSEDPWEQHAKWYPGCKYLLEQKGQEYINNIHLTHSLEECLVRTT
Protocol: as §1

[2] = Table 3, 20 ng/mL TNF-α, values given as ranges

Structure (SMILES)	EC50 [1, 2]	IC50 (cIAP1-BIR3 Protein)	IC50 (cIAP2-BIR3 Protein)	IC50 (XIAP-BIR3 Protein)	EC50 ([1]; Table 4, 20 ng/mL TNF-α, exact values with control Birinapant)
CCC[C@H](NC(=O)[C@H](C)NC)C(=O)N1C[C@@H](F)C[C@H]1Cc1c(-c2nc3cc(F)ccc3n2C[C@@H]2C[C@H](F)CN2C(=O)[C@@H](NC(=O)[C@H](C)NC)C(C)C)[nH]c2cc(F)ccc12 [Embodiment 32]	< 10 nM	< 10 nM	10 to 100 nM	10 to 100 nM	
CN[C@@H](C)C(=O)N[C@H](C(=O)N1C[C@@H](F)C[C@H]1Cc1c(-c2nc3cc(F)ccc3n2C[C@@H]2C[C@H](F)CN2C(=O)[C@@H](NC(=O)[C@H](C)NC)C2CCC2)[nH]c2cc(F)ccc12)C1CCC1 [Embodiment 17]	< 10 nM	< 10 nM	10 to 100 nM	< 10 nM	
CC[C@H](NC(=O)[C@H](C)NC)C(=O)N1CC(F)(F)C[C@H]1Cc1c(-c2nc3cc(F)ccc3n2C[C@@H]2CC(F)(F)CN2C(=O)[C@H](CC)NC(=O)[C@H](C)NC)[nH]c2cc(F)ccc12 [Embodiment 43]	> 100 nM	10 to 100 nM	10 to 100 nM	10 to 100 nM	
CC[C@H](NC(=O)[C@H](C)NC)C(=O)N1C[C@@H](F)C[C@H]1Cc1c(-c2nc3cc(F)ccc3n2C[C@@H]2CCCN2C(=O)[C@@H](NC(=O)[C@H](C)NC)C(C)C)[nH]c2cc(F)ccc12 [Embodiment 39]	10 to 100 nM	< 10 nM	10 to 100 nM	< 10 nM	
CN[C@@H](C)C(=O)N[C@H](C(=O)N1CC(F)(F)C[C@H]1Cc1c(-c2nc3cc(F)ccc3n2C[C@@H]2CC(F)(F)CN2C(=O)[C@@H](NC(=O)[C@H](C)NC)C2CC2)[nH]c2cc(F)ccc12)C1CC1 [Embodiment 44]	> 100 nM	< 10 nM	10 to 100 nM	< 10 nM	
CN[C@@H](C)C(=O)N[C@H](C(=O)N1C[C@@H](F)C[C@H]1Cn1c(-c2[nH]c3cc(F)ccc3c2C[C@@H]2C[C@H](F)CN2C(=O)[C@@H](NC(=O)[C@H](C)NC)C2CC2)nc2cc(F)ccc21)C(C)C [Embodiment 28]	< 10 nM	< 10 nM	10 to 100 nM	< 10 nM	
CC[C@H](NC(=O)[C@H](C)NC)C(=O)N1C[C@@H](F)C[C@H]1Cn1c(-c2[nH]c3cc(F)ccc3c2C[C@@H]2C[C@H](F)CN2C(=O)[C@@H](NC(=O)[C@H](C)NC)C(C)C)nc2cc(F)ccc21 [Embodiment 24]	10 to 100 nM	< 10 nM	10 to 100 nM	10 to 100 nM	
CN[C@@H](C)C(=O)N[C@H](C(=O)N1CCC[C@H]1Cc1c(-c2nc3cc(F)ccc3n2C[C@@H]2CCCN2C(=O)[C@@H](NC(=O)[C@H](C)NC)C(C)C)[nH]c2cc(F)ccc12)C(C)C [Embodiment 1]	< 10 nM	< 10 nM	10 to 100 nM	10 to 100 nM	7.11 nM
CC[C@H](NC(=O)[C@H](C)NC)C(=O)N1CCC[C@H]1Cc1c(-c2nc3cc(F)ccc3n2C[C@@H]2C[C@H](F)CN2C(=O)[C@@H](NC(=O)[C@H](C)NC)C(C)(C)C)[nH]c2cc(F)ccc12 [Embodiment 38]	< 10 nM	< 10 nM	10 to 100 nM	< 10 nM	
CC[C@H](NC(=O)[C@H](C)NC)C(=O)N1CCC[C@H]1Cn1c(-c2[nH]c3cc(F)ccc3c2C[C@@H]2C[C@H](F)CN2C(=O)[C@@H](NC(=O)[C@H](C)NC)C(C)(C)C)nc2cc(F)ccc21 [Embodiment 42]	10 to 100 nM	< 10 nM	10 to 100 nM	< 10 nM	
CN[C@@H](C)C(=O)N[C@H](C(=O)N1C[C@@H](F)C[C@H]1Cc1c(-c2nc3cc(F)ccc3n2C[C@@H]2C[C@H](F)CN2C(=O)[C@@H](NC(=O)[C@H](C)NC)C(C)(C)C)[nH]c2cc(F)ccc12)C1CC1 [Embodiment 29]	< 10 nM	< 10 nM	10 to 100 nM	10 to 100 nM	
CN[C@@H](C)C(=O)N[C@H](C(=O)N1C[C@@H](F)C[C@H]1Cn1c(-c2[nH]c3cc(F)ccc3c2C[C@@H]2C[C@H](F)CN2C(=O)[C@@H](NC(=O)[C@H](C)NC)C(C)(C)C)nc2cc(F)ccc21)C1CC1 [Embodiment 22]	< 10 nM	< 10 nM	10 to 100 nM	10 to 100 nM	
CN[C@@H](C)C(=O)N[C@H](C(=O)N1C[C@@H](F)C[C@H]1Cc1c(-c2nc3cc(F)ccc3n2C[C@@H]2C[C@H](F)CN2C(=O)[C@@H](NC(=O)[C@H](C)NC)C2CC2)[nH]c2cc(F)ccc12)C1CC1 [Embodiment 14]	10 to 100 nM	< 10 nM	10 to 100 nM	10 to 100 nM	
CC[C@H](NC(=O)[C@H](C)NC)C(=O)N1C[C@@H](F)C[C@H]1Cc1c(-c2nc3cc(F)ccc3n2C[C@@H]2C[C@H](F)CN2C(=O)[C@@H](NC(=O)[C@H](C)NC)C2CC2)[nH]c2cc(F)ccc12 [Embodiment 31]	10 to 100 nM	< 10 nM	10 to 100 nM	10 to 100 nM	
CC[C@H](NC(=O)[C@H](C)NC)C(=O)N1CC(F)(F)C[C@H]1Cc1c(-c2nc3cc(F)ccc3n2C[C@@H]2CC(F)(F)CN2C(=O)[C@@H](NC(=O)[C@H](C)NC)C(C)C)[nH]c2cc(F)ccc12 [Embodiment 46]	10 to 100 nM	< 10 nM	10 to 100 nM	10 to 100 nM	
CC[C@H](NC(=O)[C@H](C)NC)C(=O)N1C[C@@H](F)C[C@H]1Cc1c(-c2nc3cc(F)ccc3n2C[C@@H]2C[C@H](F)CN2C(=O)[C@H](CC)NC(=O)[C@H](C)NC)[nH]c2cc(F)ccc12 [Embodiment 13]	> 100 nM	10 to 100 nM	10 to 100 nM	10 to 100 nM	
CN[C@@H](C)C(=O)N[C@H](C(=O)N1C[C@@H](F)C[C@H]1Cc1c(-c2nc3cc(F)ccc3n2C[C@@H]2C[C@H](F)CN2C(=O)[C@@H](NC(=O)[C@H](C)NC)C2CC2)[nH]c2cc(F)ccc12)C1CCCCC1 [Embodiment 23]	< 10 nM	< 10 nM	< 10 nM	10 to 100 nM	
CCC[C@H](NC(=O)[C@H](C)NC)C(=O)N1C[C@@H](F)C[C@H]1Cn1c(-c2[nH]c3cc(F)ccc3c2C[C@@H]2C[C@H](F)CN2C(=O)[C@@H](NC(=O)[C@H](C)NC)C2CCCCC2)nc2cc(F)ccc21 [Embodiment 36]	< 10 nM	< 10 nM	10 to 100 nM	10 to 100 nM	
CC[C@H](NC(=O)[C@H](C)NC)C(=O)N1C[C@@H](F)C[C@H]1Cc1c(-c2nc3cc(F)ccc3n2C[C@@H]2C[C@H](F)CN2C(=O)[C@@H](NC(=O)[C@H](C)NC)C2CCCCC2)[nH]c2cc(F)ccc12 [Embodiment 20]	< 10 nM	< 10 nM	10 to 100 nM	10 to 100 nM	
CC[C@H](NC(=O)[C@H](C)NC)C(=O)N1CCC[C@H]1Cc1c(-c2nc3cc(F)ccc3n2C[C@@H]2CCCN2C(=O)[C@@H](NC(=O)[C@H](C)NC)C(C)C)[nH]c2cc(F)ccc12 [Embodiment 2]	10 to 100 nM	< 10 nM	10 to 100 nM	10 to 100 nM	

Reference: patent US10508103B2, “Benzimidazole-linked indole compound acting as novel divalent IAP antagonist” (MEDSHINE DISCOVERY INC., priority 2016, dated 2019)
